Source: PubChem BioAssay AID248 (DTP/NCI, 2004)
Several values for one entry are separate records, joined by “and”; a condition that tells them apart may be missing. Identical values can stand only once. Inconclusive results and toxic doses are left out. Cut-off read from the data, not from the text of the source: active = T/C of 150% or more; inactive = T/C below 125%.

Test system: L1210 leukemia ip in BDF1 mice, survival T/C
Experiment: NCI In Vivo Anticancer Drug Screen. Data for tumor model L1210 Leukemia (intraperitoneal) in B6D2F1 (BDF1) mice
Settings: endpoint: mean survival time, higher = longer survival
Summary of the method: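 Ratio derived from survival: compound-dosed mice over vehicle-dosed mice, all bearing a transplantable tumor.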

[1] = dose: 100.0 mg/kg/injection, schedule: Q01DX001 (ip), vehicle: carboxymethylcellulose (CMC)
[2] = dose: 200.0 mg/kg/injection, schedule: Q01DX001 (ip), vehicle: carboxymethylcellulose (CMC)
[3] = dose: 400.0 mg/kg/injection, schedule: Q01DX001 (ip), vehicle: carboxymethylcellulose (CMC)
[4] = dose: 100.0 mg/kg/injection, schedule: Q01DX009 (ip), vehicle: Klucel (hydroxypropylcellulose) (HPC)
[5] = dose: 200.0 mg/kg/injection, schedule: Q01DX009 (ip), vehicle: Klucel (hydroxypropylcellulose) (HPC)
[6] = dose: 400.0 mg/kg/injection, schedule: Q01DX009 (ip), vehicle: Klucel (hydroxypropylcellulose) (HPC)
[7] = dose: 100.0 mg/kg/injection, schedule: Q04DX003 (ip), vehicle: saline
[8] = dose: 100.0 mg/kg/injection, schedule: Q04DX003 (ip), vehicle: Klucel (hydroxypropylcellulose) (HPC)
[9] = dose: 200.0 mg/kg/injection, schedule: Q04DX003 (ip), vehicle: Klucel (hydroxypropylcellulose) (HPC)
[10] = dose: 400.0 mg/kg/injection, schedule: Q04DX003 (ip), vehicle: Klucel (hydroxypropylcellulose) (HPC)
[11] = dose: 100.0 mg/kg/injection, schedule: Q01DX001 (ip), vehicle: saline
[12] = dose: 100.0 mg/kg/injection, schedule: Q04DX002 (ip), vehicle: Klucel (hydroxypropylcellulose) (HPC)
[13] = dose: 200.0 mg/kg/injection, schedule: Q04DX002 (ip), vehicle: Klucel (hydroxypropylcellulose) (HPC)
[14] = dose: 400.0 mg/kg/injection, schedule: Q04DX002 (ip), vehicle: Klucel (hydroxypropylcellulose) (HPC)
[15] = dose: 50.0 mg/kg/injection, schedule: Q01DX001 (ip), vehicle: Klucel (hydroxypropylcellulose) (HPC)
[16] = dose: 100.0 mg/kg/injection, schedule: Q01DX001 (ip), vehicle: Klucel (hydroxypropylcellulose) (HPC)

Measured: T/C

Cc1ccc(S(=O)(=O)NC(=O)c2c3ccccc3cc3ccccc23)cc1
inactive: dose: 100.0 mg/kg/injection, schedule: Q01DX001 (ip), vehicle: acetone 104 % of control | dose: 200.0 mg/kg/injection, schedule: Q01DX001 (ip), vehicle: acetone 104 % of control | dose: 400.0 mg/kg/injection, schedule: Q01DX001 (ip), vehicle: acetone 96 % of control

O=S1(=O)CCNNCC1
inactive: dose: 37.5 mg/kg/injection, schedule: Q01DX009 (ip), vehicle: saline 100 % of control | dose: 75.0 mg/kg/injection, schedule: Q01DX009 (ip), vehicle: saline 109 % of control | dose: 150.0 mg/kg/injection, schedule: Q01DX009 (ip), vehicle: saline 105 % of control | dose: 300.0 mg/kg/injection, schedule: Q01DX009 (ip), vehicle: saline 103 % of control

CCOC(=O)C(COC)C(C(=O)CC)C(=O)OCC (configuration not stated)
inactive: dose: 100.0 mg/kg/injection, schedule: Q01DX001 (ip), vehicle: other 102 % of control | dose: 200.0 mg/kg/injection, schedule: Q01DX001 (ip), vehicle: other 89 % of control | dose: 400.0 mg/kg/injection, schedule: Q01DX001 (ip), vehicle: other 96 % of control

O=S(c1ccccc1)C(Cl)C1(O)CCCCC1 (configuration not stated)
inactive: dose: 100.0 mg/kg/injection, schedule: Q03DX002 (ip), vehicle: saline with Tween-80 98 % of control | dose: 200.0 mg/kg/injection, schedule: Q03DX002 (ip), vehicle: saline with Tween-80 98 % of control | dose: 400.0 mg/kg/injection, schedule: Q03DX002 (ip), vehicle: saline with Tween-80 102 % of control

C1CCC(C2CCC(C3CCCC3)C2)C1 (configuration not stated)
inactive: dose: 100.0 mg/kg/injection, schedule: Q04DX002 (ip), vehicle: saline with Tween-80 91 % of control | dose: 200.0 mg/kg/injection, schedule: Q04DX002 (ip), vehicle: saline with Tween-80 94 % of control | dose: 400.0 mg/kg/injection, schedule: Q04DX002 (ip), vehicle: saline with Tween-80 91 % of control

Nc1cc(Cl)cc2[nH]c(=O)c3cc(Cl)ccc3c12
inactive: [1] 100 % of control | [2] 102 % of control | [3] 95 % of control

CC(C)(C)N
inactive: dose: 100.0 mg/kg/injection, schedule: Q04DX002 (ip), vehicle: saline 101 % of control | dose: 200.0 mg/kg/injection, schedule: Q04DX002 (ip), vehicle: saline 101 % of control | dose: 400.0 mg/kg/injection, schedule: Q04DX002 (ip), vehicle: saline 97 % of control

O=C(O)c1ccccc1/C=N/NC(=O)C(O)(c1ccccc1)c1ccccc1
inactive: [1] 114 % of control | [2] 101 % of control | [3] 103 % of control

Nc1ncc(C(=O)O)s1
inactive: [4] 98 % of control | [5] 103 % of control | [6] 87 % of control

CCN(CC)CCOc1ccc(/C=C2\CCc3ccccc3C2=O)cc1
inactive: dose: 25.0 mg/kg/injection, schedule: Q01DX007 (ip), vehicle: saline 104 % of control | dose: 50.0 mg/kg/injection, schedule: Q01DX007 (ip), vehicle: saline 102 % of control | dose: 50.0 mg/kg/injection, schedule: Q04DX003 (ip), vehicle: saline 95 % of control | dose: 100.0 mg/kg/injection, schedule: Q01DX007 (ip), vehicle: saline 96 % of control | [7] 95 % of control

NC(=O)c1c(Br)c(Br)c(Br)c(Br)c1C(=O)O (tested in a mixture with another compound)
inactive: dose: 50.0 mg/kg/injection, schedule: Q04DX003 (ip), vehicle: saline with Tween-80 96 % of control | dose: 100.0 mg/kg/injection, schedule: Q04DX003 (ip), vehicle: saline with Tween-80 91 % of control and 100 % of control and 90 % of control | dose: 200.0 mg/kg/injection, schedule: Q04DX003 (ip), vehicle: saline with Tween-80 93 % of control and 98 % of control | dose: 400.0 mg/kg/injection, schedule: Q04DX003 (ip), vehicle: saline with Tween-80 93 % of control and 90 % of control

O=C(NOCc1cscn1)NC1CCCCC1
inactive: dose: 75.0 mg/kg/injection, schedule: Q01DX001 (ip), vehicle: saline 98 % of control

CCc1ccccc1OS(=O)(=O)c1ccc([N+](=O)[O-])cc1
inactive: [4] 109 % of control | [8] 92 % of control | [5] 102 % of control | [9] 100 % of control | [6] 102 % of control | [10] 100 % of control

CC1(C)N=C(N)N=C(N)N1c1ccc(CCCC(=O)Nc2cccc(S(=O)(=O)F)c2)cc1
inactive: [11] 105 % of control and 89 % of control | dose: 200.0 mg/kg/injection, schedule: Q01DX001 (ip), vehicle: saline 103 % of control

COC(=O)COc1ccc(Cl)c2ccccc12
inactive: dose: 50.0 mg/kg/injection, schedule: Q04DX002 (ip), vehicle: Klucel (hydroxypropylcellulose) (HPC) 89 % of control | [12] 96 % of control | [13] 99 % of control and 105 % of control | [14] 92 % of control

O=S(=O)(F)c1ccc(-c2cc(Cl)c3c(Br)cc(Br)cc3n2)cc1
inactive: [8] 100 % of control | [9] 94 % of control | [10] 102 % of control

COc1ccc2nc(C)c(COC(C)=O)c(Cl)c2c1
inactive: dose: 100.0 mg/kg/injection, schedule: Q01DX009 (ip), vehicle: saline 102 % of control | [7] 100 % of control | dose: 200.0 mg/kg/injection, schedule: Q01DX009 (ip), vehicle: saline 92 % of control | dose: 200.0 mg/kg/injection, schedule: Q04DX003 (ip), vehicle: saline 96 % of control | dose: 400.0 mg/kg/injection, schedule: Q01DX009 (ip), vehicle: saline 97 % of control | dose: 400.0 mg/kg/injection, schedule: Q04DX003 (ip), vehicle: saline 112 % of control

Nc1ncnc2nc(-c3ccc(Cl)cc3Cl)[nH]c12
inactive: dose: 6.25 mg/kg/injection, schedule: Q01DX001 (ip), vehicle: saline with Tween-80 101 % of control | dose: 12.5 mg/kg/injection, schedule: Q01DX001 (ip), vehicle: saline with Tween-80 106 % of control | dose: 25.0 mg/kg/injection, schedule: Q01DX001 (ip), vehicle: saline with Tween-80 98 % of control

O=C(O)c1cc2ccccc2c2c1ccc1ccccc12
inactive: [15] 92 % of control | [16] 93 % of control | dose: 200.0 mg/kg/injection, schedule: Q01DX001 (ip), vehicle: Klucel (hydroxypropylcellulose) (HPC) 93 % of control

N=c1ccccn1CC(Cl)COc1ccccc1 (configuration not stated)
inactive: [11] 104 % of control

CN1CCN(c2c3c(nc4ccccc24)CCCC3)CC1
inactive: [11] 96 % of control

O=C(O)c1cc([N+](=O)[O-])ccc1Br
inactive: dose: 50.0 mg/kg/injection, schedule: Q01DX009 (ip), vehicle: Klucel (hydroxypropylcellulose) (HPC) 89 % of control | [4] 86 % of control | [5] 93 % of control

Cc1nc2c(N)nnc(N)c2nc1C
inactive: dose: 25.0 mg/kg/injection, schedule: Q01DX001 (ip), vehicle: Klucel (hydroxypropylcellulose) (HPC) 97 % of control | [15] 93 % of control | [16] 95 % of control | [4] 100 % of control

Cc1cc2nc(-c3cc4cc(Cl)cc(Cl)c4oc3=O)[nH]c2cc1C
inactive: [12] 108 % of control | [13] 104 % of control | [14] 115 % of control
